The test system of the assay is fundus of the stomach (gastric tone) in conscious dogs. Briefly: Gastric tone measured by an electronic barostat in conscious dogs. The assay is classed as in vivo, beagle dogs. Particulars: 1 hour observation period, constant pressure 6 mmHg. From the text:
C. Pharmacological Examples C.1 Gastric Tone Measured by an Electronic Barostat in Conscious Dogs
Gastric tone cannot be measured by manometric methods. Therefore an electronic barostat was used. This allows the study of the physiological pattern and regulation of gastric tone in conscious dogs and the influence of test-compounds on this tone.
The barostat consists of an air injection system which is connected by a double-lumen 14-French polyvinyl tube to an ultrathin flaccid polyethylene bag (maximal volume: ±700 ml). Variations in gastric tone were measured by recording changes in the volume of air within an intragastric bag, maintained at a constant pressure. The barostat maintains a constant pressure (preselected) within a flaccid air-filled bag introduced into the stomach, changing the volume of air within the bag by an electronic feedback system.
Thus the barostat measures gastric motor activity (contraction or relaxation) as changes in intragastric volume (decrease or increase resp.) at a constant intragastric pressure. The barostat consists of a strain gauge linked by an electronic relay to an air injection-aspiration system. Both the strain gauge and the injection system are connected by means of double-lumen polyvinyl tube to an ultrathin polyethylene bag. A dial in the barostat allows selection of the pressure level to be maintained within the intragastric bag.
Female beagle dogs, weighing 7-17 kg, were trained to stand quietly in Pavlov frames. They were implanted with a gastric cannula under general anaesthesia and aseptic precautions. After a median laparotomy, an incision was made through the gastric wall in longitudinal direction between the greater and the lesser curve, 2 cm above the nerves of Latarjet. The cannula was secured to the gastric wall by means of a double purse string suture and brought out via a stub wound at the left quadrant of the hypochondrium. Dogs were allowed a recovery period of two weeks.
At the beginning of the experiment, the cannula was opened in order to remove any gastric juice or food remnants. If necessary, the stomach was cleansed with 40 to 50 ml lukewarm water. The ultrathin bag of the barostat was positioned into the fundus of the stomach through the gastric cannula. In order to ensure easy unfolding of the intragastric bag during the experiment, a volume of 300-400 ml was injected twice into the bag.
When during a stabilisation period of maximum 90 minutes, the gastric volume is stable during 15 minutes at a constant pressure of 6 mmHg (about 0.81 kPa), the test compound was administered subcutaneously (S.C.), or intraduodenally (I.D.). Test compounds were screened, i.e. changes in gastric volume were measured, usually at 0.63 mg/kg. […] Table C-1 summarizes the mean maximal change in volume on relaxation of the fundus, during the 1 hour observation period after S.C. or I.D. administration of the test compound (0.63 mg/kg).

Where [1] appears, read: S.C. administration, 0.63 mg/kg.

Five compounds from patent US7423048B2, “Compounds for treating fundic disaccomodation” (Janssen Pharmaceutica, N.V., priority 2000, dated 2008) can be followed below.

The structures appear in SMILES notation. Marks after values point to notes of the source that are not given here.

In the case of `O=C1NCCCN1CCCNCC1COc2cccnc2O1` (racemic) [Compound 1, (±)-1-[3-[[(2,3-dihydro-1,4-dioxino[2,3-b]pyridin-3-yl)methyl]amino]propyl]tetrahydro-2(1H)pyrimidinone], the “Maximum change in volume (mean maximal change in volume on relaxation of the fundus)” value (shortened to “Maximum change in volume”) under setting [1] amounted to 156 mL.

For the compound `O=C(O)C(=O)O.O=C1NCCCN1CCCNCC1CCc2cccnc2O1` (racemic) [Compound 9, (±)-1-[3-[[(3,4-dihydro-2H-pyrano[2,3-b]pyridin-2-yl)methyl]amino]propyl]tetrahydro-2(1H)-pyrimidinone ethanedioate (1:1)], under setting [1], the “Maximum change in volume” value came out at 78 mL.

Turning to `CC1(C)CNC(=O)N(CCCNCC2Oc3cccnc3O2)C1` (racemic) [Compound 10, (±)-1-[3-[(1,3-dioxolo[4,5-b]pyridin-2-ylmethyl)amino]-propyl]tetrahydro-5,5-dimethyl-2(1H)-pyrimidinone], the “Maximum change in volume” value under setting [1] was found to be 31 mL.

`O=C1CN(CC(O)CNCC2COc3cccnc3O2)C(=O)N1` (centres unmarked) [Compound 13, 1-[3-[[(2,3-dihydro-1,4-dioxino[2,3-b]pyridin-3-yl)methyl]amino]-2-hydroxypropyl]-2,4-imidiazolidinedione]: for the setting “I.D. administration, 0.63 mg/kg”, the “Maximum change in volume” value stood at 118 mL.

`O=C1CCN(CCCNC[C@H]2COc3cccnc3O2)C(=O)N1` [Compound 25, (S)-1-[3-[[(2,3-dihydro[1,4]dioxino[2,3-b]pyridin-3-yl)methyl]amino]-propyl]dihydro-2,4(1H,3H)-pyrimidinedione]: the “Maximum change in volume” value (I.D. administration, 0.04 mg/kg (footnote *)) is reported as 226* ml.
